In patent US8329676B2, “Cycloalkane-containing sphingosine 1-phosphate agonists” (University of Virginia Patent Foundation, priority 2005, dated 2012):

Columns and labels:
Heart rate assay = type: in vivo; conditions: mice, intravenous, 3 mg/kg (FIG. 2)
Description: In the assay the test compound was administered via IV Dosing and the vehicle was 2% cyclodextrin.
Mice were dosed with VPC01091 (intravenous, 3 mg/kg) or vehicle (2% hydroxypropyl beta-cyclodextrin) and heart rate measured at the indicated times post dosing. Heart rate was captured in unrestrained, conscious animals using the ECGenie™ system.

blood lymphocytes = experiment: Lymphopenia assay; type: in vivo, mice
Description: Pro-drug compounds (i.e., primary alcohols such as VPC01091) are dissolved in 2% hydroxypropyl beta-cyclodextrin and introduced into mice by oral gavage at doses from 0.01 to 30 mg/kg body weight. After 24 hours (or multiples thereof), the mice are lightly anesthetized and ca. 0.1 ml of blood is drawn from the orbital sinus. The number of lymphocytes (in thousands per microliter of blood; normal is 4-11) is determined using a Hemavet blood analyzer. In the histogram showing the four isomers of VPC01091, the 100% value for the vehicle treated mouse was 7.5 at 24 hours; at 96 hours it was 5. There were three mice/group, the strain was mixed sv129×C57BL/6. Active compounds (e.g., VPC01211) are dissolved in acidified DMSO at 20 mM, and diluted 1:20 into 2% hydroxypropyl beta-cyclodextrin in water with mixing. This solution is introduced into mice by intraperitoneal (i.p.) injection at doses of 0.01-10 mg/kg body weight.
FIG. 3 describes total blood lymphocyte count following single dose of VPC01091 or vehicle. […] Five mice per group, male, 10-11 week old sv129/C57B16 strain.
A dose response curve for VPC01091 in the lymphopenia assay is given as FIG. 4. FIG. 4 graphically summarizes oral administration (gavage) of VPC01091 in 2% hydroxypropyl beta-cyclodextrin, 3 mice per group (same strain as in FIG. 3).
This phosphorylation of these compounds is thought to be catalyzed in vivo by sphingosine kinase type 2 (SPHK2), which is encoded by the SPHK2 gene in mice.

[1] = target: T1, human S1P type 3 (S1P3) receptor (Homo sapiens, UniProt Q99500); experiment: GTPγS-35 binding assay, S1P3; type: biochemical
T1 construct: expressed in transfected cells; host or cells: HEK293T (crude microsomes)
Description: The assay forces expression concomitantly of a recombinant GPCR (e.g., the S1P1-5 receptor) and each of the three subunits (typically, alphai2, beta1, gamma2) of a heterotrimeric G protein in a HEK293T cell by transfecting the cell with four plasmid DNAs encoding the respective proteins. About 60 hours after transfection the cells are harvested, opened, and the nucleus discarded. This allows for the preparation of a crude microsome from the remainder. Agonist (e.g., S1P) stimulation of the receptor-G protein complex on the microsomes results in the exchange of GTP for GDP on the alpha subunit in a dose-dependent manner. To detect the GTP-bound alpha subunit, we use a GTP analog (GTPγS-35), which is a radionuclide (sulfur-35) labeled phosphothionate, that is not hydrolyzed to GDP. The microsomes with the adherent G proteins are collected by filtration and the bound GTPγS-35 quantified in a liquid scintillation counter. The assay yields relative potency (EC50 values) and maximum effect (efficacy, Emax). Antagonist activity is detected as rightward shifts in the agonist dose-response curve in the presence of a fixed amount of antagonist. If the antagonist behaves competitively, the affinity of the receptor/antagonist pair (K1) can be determined.

human S1P1 receptor = target: T2, human S1P1 receptor (Homo sapiens, UniProt P21453); experiment: GTPγS-35 binding assay, S1P1; type: biochemical; conditions: relative to S1P (FIG. 6)
T2 construct: expressed in transfected cells; host or cells: HEK293T (crude microsomes)
Description: This assay illustrates agonist activation of G protein coupled receptors (GPCRs) in isolation. The assay forces expression concomitantly of a recombinant GPCR (e.g., the S1P1-5 receptor) and each of the three subunits (typically, alphai2, beta1, gamma2) of a heterotrimeric G protein in a HEK293T cell by transfecting the cell with four plasmid DNAs encoding the respective proteins. About 60 hours after transfection the cells are harvested, opened, and the nucleus discarded. This allows for the preparation of a crude microsome from the remainder. Agonist (e.g., S1P) stimulation of the receptor-G protein complex on the microsomes results in the exchange of GTP for GDP on the alpha subunit in a dose-dependent manner. To detect the GTP-bound alpha subunit, we use a GTP analog (GTPγS-35), which is a radionuclide (sulfur-35) labeled phosphothionate, that is not hydrolyzed to GDP. The microsomes with the adherent G proteins are collected by filtration and the bound GTPγS-35 quantified in a liquid scintillation counter. […] Antagonist activity is detected as rightward shifts in the agonist dose-response curve in the presence of a fixed amount of antagonist. If the antagonist behaves competitively, the affinity of the receptor/antagonist pair (K1) can be determined.

human S1P3 receptor [2] = target: T3, human S1P3 receptor (Homo sapiens, UniProt Q99500); experiment: Calcium mobilization assay, CHO-K1 cells expressing S1P3; type: cell-based; parameters: expressed in transfected cells; host or cells: hamster CHO-K1, clonal population; conditions: FIG. 9
Description: FIG. 9 graphically illustrates the results of a calcium mobilization assay using CHO-K1 cells expressing recombinant human S1P3 receptor.
(§2) To measure calcium mobilization in response to agonist stimulation, cells were plated onto a 96 well plate, loaded with the calcium sensing dye Fluo-4AM and cells exposed to various concentrations of agonist for 3-5 minutes. Changes in fluorescence, which correlate with intracellular calcium mobilization, are detected using a FlexStation fluorimeter. Each agonist concentration was tested in triplicate.

human S1P3 receptor [3] = target: T3, human S1P3 receptor; experiment: Calcium mobilization assay in T24 cells overexpressing S1P3; type: cell-based; parameters: expressed in transfected cells; conditions: 10 μM test compound, FIG. 15
Description: FIG. 15 is an illustration of the result of a calcium mobilization assay in T24 cells overexpressing the human S1P3 receptor in response to […] S1P in the presence of 10 μM VPC01211.

human S1P4 receptor = target: T4, human S1P4 receptor (Homo sapiens, UniProt O95977); experiment: GTPγS-35 binding assay, S1P4; type: biochemical; conditions: FIG. 10
T4 construct: expressed in transfected cells; host or cells: HEK293T (crude microsomes)
Excerpt: FIG. 10 graphically illustrates the results of a broken cell GTPγ^35S binding assay for the human S1P4 receptor. Compound ‘CA5-P’ is VPC01211. Compounds CA6-P and CA4-P are the corresponding cyclohexyl and cyclobutyl compounds.
(§1) This assay illustrates agonist activation of G protein coupled receptors (GPCRs) in isolation. The assay forces expression concomitantly of a recombinant GPCR (e.g., the S1P1-5 receptor) and each of the three subunits (typically, alphai2, beta1, gamma2) of a heterotrimeric G protein in a HEK293T cell by transfecting the cell with four plasmid DNAs encoding the respective proteins. About 60 hours after transfection the cells are harvested, opened, and the nucleus discarded. This allows for the preparation of a crude microsome from the remainder. Agonist (e.g., S1P) stimulation of the receptor-G protein complex on the microsomes results in the exchange of GTP for GDP on the alpha subunit in a dose-dependent manner. […] The microsomes with the adherent G proteins are collected by filtration and the bound GTPγS-35 quantified in a liquid scintillation counter. […] Antagonist activity is detected as rightward shifts in the agonist dose-response curve in the presence of a fixed amount of antagonist. If the antagonist behaves competitively, the affinity of the receptor/antagonist pair (K1) can be determined.

human S1P3 receptor [4] = target: T3, human S1P3 receptor; experiment: Schild plot of S1P dose response curves at S1P3; type: biochemical; parameters: expressed in transfected cells; host or cells: hamster CHO-K1, clonal population; conditions: FIGS. 12-14
Excerpt: FIG. 12 is an illustration of a Schild plot for the results of S1P dose response curves at the human S1P3 receptor, at the indicated concentrations of test compound VPC01222.
FIG. 13 is an illustration of a Schild plot for the results of S1P dose response curves at the human S1P3 receptor, at the indicated concentrations of test compound VPC01211.
FIG. 14 is an illustration of a Schild plot for the results of S1P dose response curves at the human S1P3 receptor, at the indicated concentrations of test compound VPC01214.
as §1, with “discarded.” for “discarded. This allows for the preparation of a crude microsome from the remainder. Agonist (e.g., S1P) stimulation of the receptor-G protein complex on the microsomes results in the exchange of GTP for GDP on the alpha subunit in a dose-dependent manner.”

human S1P2 receptor [5] = target: T5, human S1P2 receptor (Homo sapiens, UniProt O95136); experiment: GTPγS-35 binding assay, S1P2; type: biochemical; parameters: expressed in transfected cells; host or cells: HEK293T (crude microsomes); conditions: FIG. 8
Excerpt: FIG. 8 graphically illustrates the results of a broken cell GTPγ^35S binding assay for the human S1P2 receptor. Compound ‘CA5-P’ is VPC01211. Compounds CA6-P and CA4-P are the corresponding cyclohexyl and cyclobutyl compounds. The ordinate represents percent GTPγ^35S binding and the abscissa represents log molar concentration of lipid.
as §1, with “remainder.” for “remainder. Agonist (e.g., S1P) stimulation of the receptor-G protein complex on the microsomes results in the exchange of GTP for GDP on the alpha subunit in a dose-dependent manner.”

human S1P2 receptor [6] = target: T5, human S1P2 receptor; experiment: Calcium mobilization assay, CHO-K1 cells expressing S1P2; type: cell-based; parameters: expressed in transfected cells; host or cells: hamster CHO-K1, clonal population; conditions: FIG. 7
Description: FIG. 7 graphically illustrates the results of a calcium mobilization assay using CHO-K1 cells expressing recombinant human S1P2 receptor. […] The ordinate represents percent maximal calcium mobilization and the abscissa represents log molar concentration of lipid.
as §2
FIG. 7: CHOK1 cells transfected with S1P2 receptor DNA

human S1P5 receptor = target: T6, human S1P5 receptor (Homo sapiens, UniProt Q9H228); experiment: GTPγS-35 binding assay, S1P5; type: biochemical; conditions: FIG. 11
T6 construct: expressed in transfected cells; host or cells: HEK293T (crude microsomes)
Excerpt: FIG. 11 graphically illustrates the results of a broken cell GTPγ^35S binding assay for the human S1P5 receptor. Compound ‘CA5-P’ is VPC01211. Compounds CA6-P and CA4-P are the corresponding cyclohexyl and cyclobutyl compounds.
as §1

T3 sequence (Q99500 whole entry): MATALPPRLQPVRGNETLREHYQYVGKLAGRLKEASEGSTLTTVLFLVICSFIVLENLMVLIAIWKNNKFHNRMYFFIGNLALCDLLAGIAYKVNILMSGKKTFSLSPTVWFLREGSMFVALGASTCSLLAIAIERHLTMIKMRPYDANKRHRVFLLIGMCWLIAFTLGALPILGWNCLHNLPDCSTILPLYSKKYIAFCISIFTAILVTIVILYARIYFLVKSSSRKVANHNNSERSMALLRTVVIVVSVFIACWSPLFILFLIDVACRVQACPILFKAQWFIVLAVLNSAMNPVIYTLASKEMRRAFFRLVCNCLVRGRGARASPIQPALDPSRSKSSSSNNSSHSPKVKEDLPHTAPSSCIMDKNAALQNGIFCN
T5 sequence (O95136 whole entry): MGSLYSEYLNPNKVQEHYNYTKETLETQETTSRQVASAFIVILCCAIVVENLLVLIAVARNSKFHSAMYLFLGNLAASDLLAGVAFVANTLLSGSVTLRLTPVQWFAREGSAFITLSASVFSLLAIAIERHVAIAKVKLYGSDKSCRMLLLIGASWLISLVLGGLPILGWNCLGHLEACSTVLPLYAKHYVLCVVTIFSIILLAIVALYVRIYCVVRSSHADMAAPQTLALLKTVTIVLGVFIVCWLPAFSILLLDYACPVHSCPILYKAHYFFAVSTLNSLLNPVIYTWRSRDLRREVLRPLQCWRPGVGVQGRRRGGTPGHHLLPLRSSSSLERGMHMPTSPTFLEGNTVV
T4 sequence (O95977 whole entry): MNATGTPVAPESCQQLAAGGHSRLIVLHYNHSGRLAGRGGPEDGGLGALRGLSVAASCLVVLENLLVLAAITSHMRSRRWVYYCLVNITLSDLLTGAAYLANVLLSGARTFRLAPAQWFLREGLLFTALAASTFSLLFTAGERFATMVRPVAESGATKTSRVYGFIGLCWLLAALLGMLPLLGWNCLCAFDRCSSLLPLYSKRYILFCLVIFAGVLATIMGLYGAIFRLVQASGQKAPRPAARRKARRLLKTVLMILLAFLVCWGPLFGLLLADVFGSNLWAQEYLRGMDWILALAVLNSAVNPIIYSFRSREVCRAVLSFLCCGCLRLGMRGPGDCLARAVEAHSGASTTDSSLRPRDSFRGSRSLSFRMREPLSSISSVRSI
T4 sequence (P04899 2-355 partner limits assumed): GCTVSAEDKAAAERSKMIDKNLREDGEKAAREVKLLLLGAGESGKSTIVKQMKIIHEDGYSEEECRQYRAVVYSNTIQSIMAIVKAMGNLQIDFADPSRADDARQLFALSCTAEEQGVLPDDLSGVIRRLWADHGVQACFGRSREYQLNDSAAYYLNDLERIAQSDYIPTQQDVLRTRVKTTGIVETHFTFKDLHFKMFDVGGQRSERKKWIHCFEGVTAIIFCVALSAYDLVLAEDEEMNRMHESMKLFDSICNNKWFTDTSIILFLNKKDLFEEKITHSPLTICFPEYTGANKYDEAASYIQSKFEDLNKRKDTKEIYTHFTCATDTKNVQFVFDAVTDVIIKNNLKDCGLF
T4 sequence (P62873 2-340 partner limits assumed): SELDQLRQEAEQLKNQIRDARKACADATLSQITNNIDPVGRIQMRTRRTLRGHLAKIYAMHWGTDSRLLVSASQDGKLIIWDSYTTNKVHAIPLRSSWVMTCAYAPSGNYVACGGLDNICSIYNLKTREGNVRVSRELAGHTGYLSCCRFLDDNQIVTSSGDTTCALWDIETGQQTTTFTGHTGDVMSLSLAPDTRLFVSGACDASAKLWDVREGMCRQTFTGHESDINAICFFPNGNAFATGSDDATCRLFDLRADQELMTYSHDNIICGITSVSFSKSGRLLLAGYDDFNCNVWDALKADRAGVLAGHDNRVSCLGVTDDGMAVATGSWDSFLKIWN
T4 sequence (P59768 2-68 partner limits assumed): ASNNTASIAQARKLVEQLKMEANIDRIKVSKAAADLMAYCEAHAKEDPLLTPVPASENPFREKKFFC
T2 sequence (P21453 whole entry): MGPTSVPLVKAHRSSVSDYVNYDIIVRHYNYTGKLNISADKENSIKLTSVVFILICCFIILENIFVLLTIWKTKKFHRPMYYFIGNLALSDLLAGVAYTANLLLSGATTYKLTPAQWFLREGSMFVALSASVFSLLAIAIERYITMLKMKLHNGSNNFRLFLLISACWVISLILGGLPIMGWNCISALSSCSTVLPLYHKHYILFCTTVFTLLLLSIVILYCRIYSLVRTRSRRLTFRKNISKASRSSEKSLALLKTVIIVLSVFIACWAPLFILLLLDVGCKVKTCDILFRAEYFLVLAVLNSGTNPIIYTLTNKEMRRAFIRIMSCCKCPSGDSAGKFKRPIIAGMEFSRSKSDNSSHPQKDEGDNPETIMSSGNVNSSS
T2 sequence (P04899 2-355 partner limits assumed): as the sequence (P04899 2-355 partner limits assumed) above
T2 sequence (P62873 2-340 partner limits assumed): as the sequence (P62873 2-340 partner limits assumed) above
T2 sequence (P59768 2-68 partner limits assumed): as the sequence (P59768 2-68 partner limits assumed) above
T1 sequence (Q99500 whole entry): as the sequence (Q99500 whole entry) above
T6 sequence (Q9H228 whole entry): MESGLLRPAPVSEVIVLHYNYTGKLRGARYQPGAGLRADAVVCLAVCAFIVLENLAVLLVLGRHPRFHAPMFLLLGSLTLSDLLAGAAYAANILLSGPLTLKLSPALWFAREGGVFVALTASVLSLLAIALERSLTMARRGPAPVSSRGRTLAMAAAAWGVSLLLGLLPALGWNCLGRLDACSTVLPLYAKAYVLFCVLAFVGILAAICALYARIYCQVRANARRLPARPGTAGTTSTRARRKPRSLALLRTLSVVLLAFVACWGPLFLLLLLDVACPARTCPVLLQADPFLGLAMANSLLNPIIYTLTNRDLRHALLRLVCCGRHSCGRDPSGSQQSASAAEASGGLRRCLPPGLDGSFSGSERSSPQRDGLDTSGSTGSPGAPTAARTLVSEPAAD
T6 sequence (P04899 2-355 partner limits assumed): as the sequence (P04899 2-355 partner limits assumed) above
T6 sequence (P62873 2-340 partner limits assumed): as the sequence (P62873 2-340 partner limits assumed) above
T6 sequence (P59768 2-68 partner limits assumed): as the sequence (P59768 2-68 partner limits assumed) above

SMILES	effect on heart rate (Heart rate assay)	lymphopenia (total blood lymphocyte count) (blood lymphocytes; mice, oral gavage, single dose, 2% hydroxypropyl beta-cyclodextrin (FIG. 3))	duration of lymphopenia (blood lymphocytes; mice, single ED95 dose)	lymphopenia in mice without a functional SPHK2 gene (blood lymphocytes; single oral dose, 24 hours (FIG. 5))	activity at the S1P3 receptor (GTPγS binding) [1]	agonist activity at the S1P1 receptor (human S1P1 receptor)	activity at the S1P3 receptor (calcium mobilization) (human S1P3 receptor [2])	antagonism at S1P3 (rightward shift of S1P calcium response) (human S1P3 receptor [3])	agonist activity at the S1P4 receptor (human S1P4 receptor)	antagonism at S1P3 (rightward shifts in the S1P dose response curves) (human S1P3 receptor [4])	activity at the S1P2 receptor (GTPγS binding) (human S1P2 receptor [5])	activity at the S1P2 receptor (calcium mobilization) (human S1P2 receptor [6])	agonist activity at the S1P5 receptor (human S1P5 receptor)
CCCCCCCCc1ccc(C2CCC(N)(CO)C2)cc1 (stereo not shown) [VPC01091, (1-amino-3-(4-octylphenyl)cyclopentyl)methanol]	no effect on the heart rate	profound, long lasting lymphopenia	lymphopenia for a week or more	no lymphopenia was observed	–	–	–	–	–	–	–	–	–
CCCCCCCCc1ccc(C2CCC(N)(COP(=O)(O)O)C2)cc1 (stereo not shown) [VPC01211, (1-amino-3-(4-octylphenyl)cyclopentyl)methyl dihydrogen phosphate]	–	–	–	–	negative, or inverse, agonists	partial agonists	inactive	surmountable antagonism	full agonists	surmountable antagonist	inactive	inactive	partial agonists
